Measurements taken from US20220145406A1, “BIOMARKERS, AND USES IN TREATMENT OF VIRAL INFECTIONS, INFLAMMATIONS, OR CANCER” (ABIVAX, priority 2018, published 2022).
Where “and” joins values, the source holds several entries; their conditions need not be identical. Equal entries are not always repeated.

Assays:
[1] = tested on: miR-124 (miR-124-1, miR-124-2, miR-124-3 loci); assay: RNA CaptureSeq read counts at the miR-124 loci in PBMCs; assay type: cell-based, human; conditions: PBMCs treated with ABX464
Method: (§1) Total RNA was extracted from infected and uninfected PBMC samples using TRIzol reagent (Invitrogen) following the manufacturer's protocol. The RNA concentrations and purity were determined using the RNA 6000 Bioanalyzer kit (Agilent). For cDNA synthesis, 1 μg of total RNA was treated with DNase I (Invitrogen) and then utilized as a template for reverse transcription using the Verso cDNA kit with a blend of random hexamers and anchored oligo-dT (Thermo Scientific), according to the manufacturer's instructions. After KAPA Hyper Prep (ROCHE) library preparation from 1 μg total RNA, we proceeded with SeqCap EZ capture (ROCHE) following the manufacturer's recommendations. Hybrid selection was performed with a custom SeqCap EZ Choice Library (Roche NimbleGen) containing the following regions; chromosome 8 (9,760,617 to 9,761,780 and 65,285,285 to 65,296,944). chromosome 20 (61,797,549 to 61,812,855), chromosome 1 (1,102,000 to 1,106,000), chromosome 13 (92,000,074 to 92,006,833), chromosome 15 (22,512,831 to […]) and the genome of the HIV Ada8 strain. This library was designed through the NimbleDesign portal (v1.2.R1) using genome build hg19 NCBI Build 37.1/GRCh37. Sequencing was performed on a NextSeq 500 (Illumina) with 18 samples on a HighOutput Cartridge (2×400 million reads of 75 bases each).
miR-124 is encoded from three independent genes, miR-124-1, miR-124-2, and miR-124-3, located on human chromosomes 8 and 20 (FIG. 4A). To determine which of these genes is induced by ABX464, we employed targeted RNA CaptureSeq to assess the full depth of the transcriptome. […] The total number of reads for untreated as well as ABX464 treated samples varied between 2 and 30 million in infected and uninfected PBMCs (Table V). The number of reads from the three loci encoding miR-124 in the treated samples were 4- to 12-fold higher than in the untreated samples (FIG. 4B, Table V), confirming that ABX464 led to a large increase in miR-124. […]

HIV-1 YU-2 strain = assay: HIV-1 replication measured by p24 production in infected PBMCs; assay type: cell-based; conditions: Human immunodeficiency virus 1, PBMC; 5 μM ABX464; PBMCs from 6 donors infected with YU-2 strain; read-out: inhibition of viral replication (p24 production)
Method: Buffy coats from HIV-negative individuals were obtained from the local blood donation center in Centre de transfusion sanguine Montpellier. Human peripheral blood mononuclear cells (PBMCs) were isolated by Ficoll (Histopaque, Sigma) gradient centrifugation. CD4+ and CD8+ T cells were purified from PBMCs after Ficoll gradient centrifugation by Human CD4+ beads positive selection and CD8+ beads positive selection, respectively (Miltenyi). PBMCs, CD4+ and CD8+ T cells were grown at 37° C. and 5% CO2 to a density of 1.5×10^6 cells/ml in RPMI GlutaMAX medium (Life Technologies) supplemented with 10% fetal calf serum (FCS) (Thermo Fisher), 40 U/ml of IL2 (PeproTech) and 5 μg/mL of PHA (Roche) for 2 days. […]
PBMCs from 6 HIV-negative donors were infected with the YU-2 strain, followed by treatment with ABX464. […] To highlight potential new splicing events induced by ABX464, we used a custom bioinformatics pipeline with the main step involving the assembly of putative transcripts from targeted RNA sequencing reads to construct contigs (Illumina paired-end 2×75 bp) (FIGS. 6 A and B). […] The HIV profiling datasets used in our analysis yielded high sequence coverage (2 to 30 million reads for the 9 kb genome), allowing deep quantification of HIV splice variants.

HIV RNA = assay: RNA CaptureSeq of HIV RNA splicing in infected PBMCs; assay type: cell-based, HIV-1
Method: as §1
To profile viral transcriptional events modulated by ABX464 and thereby assess the full depth of the HIV transcriptome, we employed a recently described targeted RNA capture and sequencing strategy (RNA CaptureSeq). This strategy involves the construction of tiling arrays across the HIV genome, against which cDNAs are hybridized, eluted and sequenced. RNA CaptureSeq is similar to previous in-solution capture methods and exome sequencing approaches, but when combined with deep-sequencing technology, provides saturating coverage and permits the robust assembly of rare and unannotated HIV transcripts.
PBMCs from 6 HIV-negative donors were infected with the YU-2 strain, followed by treatment with ABX464. […] After cDNA capture from infected cells that were untreated or treated with ABX464, libraries were prepared and sequenced using an Illumina sequencing facility. To highlight potential new splicing events induced by ABX464, we used a custom bioinformatics pipeline with the main step involving the assembly of putative transcripts from targeted RNA sequencing reads to construct contigs (Illumina paired-end 2×75 bp) (FIGS. 6 A and B). The putative transcripts (contigs) were then mapped to the HIV genome. The HIV profiling datasets used in our analysis yielded high sequence coverage (2 to 30 million reads for the 9 kb genome), allowing deep quantification of HIV splice variants.
To test whether enhanced splicing by ABX464 generates new viral RNA variants, the splicing events were filtered and analyzed. After mapping the contigs to the genome of the YU-2 strain, the latter was used as an anchor for additional clustering and assembly of new HIV transcripts. The partial gene structures generated by the spliced alignment were merged whenever they shared consecutive splicing sites spanning an intronic viral sequence. The superstructures so formed correspond to all possible HIV gene structures for which each complete exon is supported by at least one of the alignments. At the HIV transcript level, this led to the formation of superassemblies, where each superassembly is a merge of initial contigs matching a predicted superstructure. […] FIG. 1C and Table III present the distribution of the number of contigs that were merged to form one superassembly for each donor. […]

[2] = PBMCs infected with YU2, treated with ABX464, one value per donor library

## FC(F)(F)Oc1ccc(Nc2ccc3cccc(Cl)c3n2)cc1 [ABX464, 8-chloro-N-(4-(trifluoromethoxy)phenyl)quinolin-2-amine]
[1]; one value per donor library
  read counts mir124.2: 704 and 4 and 4222 and 362 and 2326 and 5452
  read counts mir124.3: 6439 and 701 and 21941 and 2542 and 14460 and 7772
[1]; one value per donor library (D1, D4-D8)
  read counts mir124.1: 4014 and 7114 and 4748 and 324 and 2486 and 1088
HIV-1 YU-2 strain
  inhibition at 5 µM: > 70%
HIV RNA; ABX464-treated PBMC samples infected with YU-2
  assembled contigs corresponding to spliced RNAs: 90%
HIV RNA; [2]
  contig counts spliced RNA transcripts Gag: 18 and 42 and 25 and 13 and 19 and 26
  contig counts spliced RNA transcripts Pol: 67 and 61 and 17 and 14 and 12 and 35
  contig counts spliced RNA transcripts Vif: 32 and 34 and 15 and 16 and 12 and 25
  contig counts spliced RNA transcripts env: 59 and 42 (2×) and 37 and 13 and 35
  contig counts spliced RNA transcripts rev: 23 and 21 and 17 and 9 and 12 and 29
  contig counts spliced RNA transcripts tat: 16 and 18 (2×) and 19 and 15 and 24
  contig counts spliced RNA transcripts vpr: 14 (2×) and 9 and 12 (2×) and 11
  contig counts spliced RNA transcripts vpu: 7 and 5 and 13 and 11 (2×) and 17
HIV RNA; PBMCs infected with YU2, treated with ABX464, one value per donor library (D1, D4-D8)
  contig counts Complete_mRNA: 11 and 13 and 6 (2×) and 32 and 15
